Results on 17 compounds are retold here after publication PMC8048568, “Synthesis of σ Receptor Ligands with a Spirocyclic System Connected with a Tetrahydroisoquinoline Moiety via Different Linkers” (Chemmedchem, 2021).

Read-outs that look alike come from different tables or passages of the source.

The target of test [1] is σ1 receptor (Cavia porcellus, UniProt Q60492). Kind of test: σ1 receptor competitive radioligand binding assay with [3H]-(+)-pentazocine. The conditions noted are these: for Ki: K i [nM]±SEM σ1, [3H]-(+)-pentazocine, guinea pig brain homogenate, mean of 3 experiments; for inhibition at 1 µM: read-out: inhibition of the radioligand, σ1.
Sequence of σ1 receptor (Cavia porcellus, UniProt Q60492) (Q60492 whole entry): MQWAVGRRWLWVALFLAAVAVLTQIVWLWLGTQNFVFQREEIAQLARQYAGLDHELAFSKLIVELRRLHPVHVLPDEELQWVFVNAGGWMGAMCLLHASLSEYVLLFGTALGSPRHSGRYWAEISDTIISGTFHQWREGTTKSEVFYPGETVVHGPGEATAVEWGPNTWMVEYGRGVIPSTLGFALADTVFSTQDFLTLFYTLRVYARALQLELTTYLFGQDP
Another test concerns the target T1, σ2 receptor (Rattus norvegicus, UniProt Q5U3Y7).
T1 sequence (Q5U3Y7 1-176): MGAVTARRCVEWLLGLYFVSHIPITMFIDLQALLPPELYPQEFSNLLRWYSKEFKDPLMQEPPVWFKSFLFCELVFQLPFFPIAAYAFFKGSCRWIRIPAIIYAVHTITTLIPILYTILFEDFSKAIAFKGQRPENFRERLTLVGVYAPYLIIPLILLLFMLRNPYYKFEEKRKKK
Description: σ2 receptor competitive radioligand binding assay with [3H]DTG, σ1 masked with (+)-pentazocine. As to conditions: for inhibition at 1 µM: read-out: inhibition of the radioligand, σ2, 1 μM of the test compound; for inhibition at 1 µM / inhibition of the radioligand, σ2: [3H]DTG, rat liver; for Ki: K i [nM]±SEM σ2, [3H]DTG, rat liver homogenate, mean of 3 experiments; for inhibition of the radioligand, σ2: 1 μM of the test compound, 1 µM.

The target of test [2] is σ1 receptor. The conditions noted are these: cited from earlier work.

As to `COc1cc2c(cc1OC)CN(C(=O)CN1CCC3(CC1)OC(OC)Cc1ccccc13)CC2` (centres unmarked) [Compound 21, 1‐(6,7‐Dimethoxy‐3,4‐dihydroisoquinolin‐2(1H)‐yl)‐2‐{3‐methoxy‐3,4‐dihydrospiro[[2]benzopyran‐1,4′‐piperidin]‐1′‐yl}ethan‐1‐one], the Ki on σ1 receptor [1] came out at 319 nM. Besides, the inhibition at 1 µM on σ2 receptor is 19%.
As for `COc1cc2c(cc1OC)CN(C(=O)CN1CCC3(CC1)OC(OC)c1ccccc13)CC2` (centres unmarked) [Compound 23, 1‐(6,7‐Dimethoxy‐3,4‐dihydroisoquinolin‐2(1H)‐yl)‐2‐{3‐methoxy‐3H‐spiro[[2]benzofuran‐1,4′‐piperidin]‐1′‐yl}ethan‐1‐one], the inhibition at 1 µM on σ1 receptor [1] and on σ2 receptor was 0% throughout.
`COc1cc2c(cc1OC)CN(CC(=O)N1CCC3(CC1)OC(OC)Cc1ccccc13)CC2` (centres unmarked) [Compound 25, 2‐(6,7‐Dimethoxy‐3,4‐dihydroisoquinolin‐2(1H)‐yl)‐1‐(3‐methoxy‐3,4‐dihydrospiro[[2]benzopyran‐1,4′‐piperidin]‐1′‐yl)ethan‐1‐one]: the Ki on σ1 receptor [1] is 518 nM; on σ2 receptor, 534 nM.
Regarding `COc1cc2c(cc1OC)CN(CC(=O)N1CCC3(CC1)OC(OC)c1ccccc13)CC2` (centres unmarked) [Compound 28, 2‐(6,7‐Dimethoxy‐3,4‐dihydroisoquinolin‐2(1H)‐yl)‐1‐{3‐methoxy‐3H‐spiro[[2]benzofuran‐1,4′‐piperidin]‐1′‐yl}ethan‐1‐one], the inhibition at 1 µM on σ1 receptor [1] came out at 19%. In addition, the Ki on σ2 receptor came out at 3400 nM.
Turning to `COc1cc2c(cc1OC)CN(CCN1CCC3(CC1)OC(OC)Cc1ccccc13)CC2` (centres unmarked) [Compound 30, 1′‐[2‐(6,7‐Dimethoxy‐3,4‐dihydroisoquinolin‐2(1H)‐yl)ethyl]‐3‐methoxy‐3,4‐dihydrospiro[[2]benzopyran‐1,4′‐piperidine]], the Ki at σ1 receptor [1] was 608 nM; on σ2 receptor, 348 nM.
As for `COc1cccc2c1CCCC2CCCN1CCN(C2CCCCC2)CC1` (centres unmarked) [PB28], the Ki at σ1 receptor [2] (read-out: K i σ1 subtype) is […].
Regarding `COc1cc2c(cc1OC)CN(C(=O)CNC1CCC3(CC1)OC(OC)Cc1ccccc13)CC2` (stereo not drawn) [cis‐22, cis‐1‐(6,7‐Dimethoxy‐3,4‐dihydroisoquinolin‐2(1H)‐yl)‐2‐[N‐(3‐methoxy‐3,4‐dihydrospiro[[2]benzopyran‐1,1′‐cyclohexan]‐4′‐yl)amino]ethan‐1‐one], the Ki on σ1 receptor [1] was determined as 740 nM. Also, the inhibition at 1 µM at σ2 receptor amounted to 11%.
As for `COc1cc2c(cc1OC)CN(C(=O)CNC1CCC3(CC1)OC(OC)c1ccccc13)CC2` (stereo not drawn) [cis‐24, cis‐1‐(6,7‐Dimethoxy‐3,4‐dihydroisoquinolin‐2(1H)‐yl)‐2‐[N‐(3‐methoxy‐3H‐spiro[[2]benzofuran‐1,1′‐cyclohexan]‐4′‐yl)amino]ethan‐1‐one], the Ki at σ1 receptor [1] worked out at 1600 nM. The “inhibition of the radioligand, σ2” value on σ2 receptor worked out at 9%.
Turning to `COc1cc2c(cc1OC)CN(CC(=O)NC1CCC3(CC1)OC(OC)Cc1ccccc13)CC2` (stereo not drawn) [cis‐26, cis‐2‐(6,7‐Dimethoxy‐3,4‐dihydroisoquinolin‐2(1H)‐yl)‐N‐(3‐methoxy‐3,4‐dihydrospiro[[2]benzopyran‐1,1′‐cyclohexan]‐4′‐yl)acetamide], the Ki was determined as 1000 nM at σ1 receptor [1] and 371 nM on σ2 receptor.
For the compound `COc1cc2c(cc1OC)CN(CCCC(=O)NC1CCC3(CC1)OC(OC)Cc1ccccc13)CC2` (stereo not drawn) [cis‐27, cis‐4‐(6,7‐Dimethoxy‐3,4‐dihydroisoquinolin‐2(1H)‐yl)‐N‐(3‐methoxy‐3,4‐dihydrospiro[[2]benzopyran‐1,1′‐cyclohexan]‐4′‐yl)butanamide], the results for the Ki at σ1 receptor [1] and on σ2 receptor were 712 nM and 2100 nM, respectively.
Compound `COc1cc2c(cc1OC)CN(CC(=O)NC1CCC3(CC1)OC(OC)c1ccccc13)CC2` (stereo not drawn) [cis‐29, cis‐2‐(6,7‐Dimethoxy‐3,4‐dihydroisoquinolin‐2(1H)‐yl)‐N‐(3‐methoxy‐3H‐spiro[[2]benzofuran‐1,1′‐cyclohexan]‐4′‐yl)acetamide] gave a Ki on σ1 receptor [1] of 129 nM. For the same compound, on σ2 receptor, the inhibition at 1 µM was determined as 0%.
As for `COc1cc2c(cc1OC)CN(CCNC1CCC3(CC1)OC(OC)Cc1ccccc13)CC2` (stereo not drawn) [cis‐31, cis‐N‐[2‐(6,7‐Dimethoxy‐3,4‐dihydroisoquinolin‐2(1H)‐yl)ethyl]‐3‐methoxy‐3,4‐dihydrospiro[[2]benzopyran‐1,1′‐cyclohexan]‐4′‐amine], the results for the Ki on σ1 receptor [1] and on σ2 receptor were 251 nM and 200 nM, respectively.
For the compound `Fc1ccc(-n2cc(CCCCN3CCC4(CC3)OCc3ccccc34)c3ccccc32)cc1` [siramesine], the Ki at σ1 receptor [2] (read-out: K i σ1 receptor) was 17 nM.
In the case of `COc1cc2c(cc1OC)CN(C(=O)CNC1CCC3(CC1)OC(OC)c1ccccc13)CC2` (stereo not drawn) [trans‐24, trans‐1‐(6,7‐Dimethoxy‐3,4‐dihydroisoquinolin‐2(1H)‐yl)‐2‐[N‐(3‐methoxy‐3H‐spiro[[2]benzofuran‐1,1′‐cyclohexan]‐4′‐yl)amino]ethan‐1‐one], the inhibition at 1 µM on σ1 receptor [1] came to 15%. Besides, the “inhibition of the radioligand, σ2” value at σ2 receptor came to 0%.
Turning to `COc1cc2c(cc1OC)CN(CC(=O)NC1CCC3(CC1)OC(OC)Cc1ccccc13)CC2` (stereo not drawn) [trans‐26, trans‐2‐(6,7‐Dimethoxy‐3,4‐dihydroisoquinolin‐2(1H)‐yl)‐N‐(3‐methoxy‐3,4‐dihydrospiro[[2]benzopyran‐1,1′‐cyclohexan]‐4′‐yl)acetamide], the inhibition at 1 µM on σ1 receptor [1] was 7%; on σ2 receptor, 4%.
Consider `COc1cc2c(cc1OC)CN(CC(=O)NC1CCC3(CC1)OC(OC)c1ccccc13)CC2` (stereo not drawn) [trans‐29, trans‐2‐(6,7‐Dimethoxy‐3,4‐dihydroisoquinolin‐2(1H)‐yl)‐N‐(3‐methoxy‐3H‐spiro[[2]benzofuran‐1,1′‐cyclohexan]‐4′‐yl)acetamide], for which the values for the Ki at σ1 receptor [1] and at σ2 receptor were 1300 nM and 1900 nM, respectively.
In the same order, the values of `COc1cc2c(cc1OC)CN(CCNC1CCC3(CC1)OC(OC)Cc1ccccc13)CC2` (stereo not drawn) [trans‐31, trans‐N‐[2‐(6,7‐Dimethoxy‐3,4‐dihydroisoquinolin‐2(1H)‐yl)ethyl]‐3‐methoxy‐3,4‐dihydrospiro[[2]benzopyran‐1,1′‐cyclohexan]‐4′‐amine] are 1400 nM and 499 nM.

What is called inhibition is how much of the control response was suppressed.
